# Results from publication PMC3175280 (Neurochemistry international, 2011).
# Where “and” joins values, the source holds several entries; their conditions need not be identical. Equal entries are not always repeated.
# Experiments:
# [1] = biological target: T1, S299Cα1β1γ2S GABAA receptors (Rattus norvegicus, UniProt P15431+P18508+P62813, S325C); assay: Substituted cysteine accessibility; assay type: cell-based; conditions: for reduction of subsequent ALLO induced current: 0.5 mM pCMBS added with 5 nM ALLO; for inhibition of subsequent ALLO induced current: 0.5 mM pCMBS added with 100 nM ALLO
# T1 sequence (P62813 28-455 S325C): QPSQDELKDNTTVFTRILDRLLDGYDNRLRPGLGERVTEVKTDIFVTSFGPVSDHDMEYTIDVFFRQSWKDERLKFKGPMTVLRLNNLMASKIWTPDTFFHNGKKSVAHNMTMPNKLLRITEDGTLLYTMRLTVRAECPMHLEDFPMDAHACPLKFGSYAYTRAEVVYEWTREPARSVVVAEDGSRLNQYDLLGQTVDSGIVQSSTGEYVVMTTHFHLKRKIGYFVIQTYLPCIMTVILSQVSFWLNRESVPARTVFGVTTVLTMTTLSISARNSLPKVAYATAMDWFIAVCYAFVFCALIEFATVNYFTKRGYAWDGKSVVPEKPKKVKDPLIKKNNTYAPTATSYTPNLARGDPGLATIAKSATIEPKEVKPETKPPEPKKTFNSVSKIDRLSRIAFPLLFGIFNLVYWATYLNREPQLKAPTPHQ
# T1 sequence (P15431 26-474): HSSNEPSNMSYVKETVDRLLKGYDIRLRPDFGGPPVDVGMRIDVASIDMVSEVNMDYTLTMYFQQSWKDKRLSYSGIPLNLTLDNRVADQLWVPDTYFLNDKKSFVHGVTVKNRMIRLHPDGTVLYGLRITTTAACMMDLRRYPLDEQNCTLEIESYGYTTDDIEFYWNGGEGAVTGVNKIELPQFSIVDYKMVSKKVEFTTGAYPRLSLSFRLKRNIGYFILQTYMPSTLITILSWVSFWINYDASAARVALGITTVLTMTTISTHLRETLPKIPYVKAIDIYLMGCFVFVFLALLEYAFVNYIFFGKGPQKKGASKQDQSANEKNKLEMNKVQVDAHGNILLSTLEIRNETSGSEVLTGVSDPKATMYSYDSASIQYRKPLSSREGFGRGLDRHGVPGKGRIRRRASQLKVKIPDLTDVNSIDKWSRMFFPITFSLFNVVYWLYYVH
# T1 sequence (P18508 39-466): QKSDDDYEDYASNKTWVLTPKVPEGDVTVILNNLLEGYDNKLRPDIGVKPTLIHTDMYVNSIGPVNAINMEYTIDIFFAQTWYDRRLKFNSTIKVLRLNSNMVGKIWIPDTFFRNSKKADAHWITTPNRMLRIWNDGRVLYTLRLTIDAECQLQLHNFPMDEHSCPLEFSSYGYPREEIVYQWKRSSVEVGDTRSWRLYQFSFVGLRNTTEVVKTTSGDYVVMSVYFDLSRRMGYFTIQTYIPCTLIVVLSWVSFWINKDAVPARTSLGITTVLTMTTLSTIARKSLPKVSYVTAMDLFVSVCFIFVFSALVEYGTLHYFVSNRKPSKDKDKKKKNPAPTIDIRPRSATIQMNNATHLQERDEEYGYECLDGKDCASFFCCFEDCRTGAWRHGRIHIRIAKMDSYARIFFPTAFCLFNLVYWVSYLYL
# [2] = biological target: T1, S299Cα1β1γ2S GABAA receptors; assay: Steroid activation; assay type: cell-based; conditions: for current passed, % of 1 mM GABA current: representative trace; for first peak maximal current (curve fit), % of maximal (1 mM GABA) current: first (low concentration) peak of the bimodal dose response; for second peak maximal current (curve fit), % of maximal (1 mM GABA) current: second (high concentration) peak of the bimodal dose response
# [3] = biological target: T1, S299Cα1β1γ2S GABAA receptors; assay: Steroid potentiation of submaximal GABA current, S299C receptors; assay type: cell-based; conditions: not shown for THDOC
# [4] = biological target: T2, wt α1β1γ2S GABAA receptors (Rattus norvegicus, UniProt P15431+P18508+P62813); assay: Steroid activation; assay type: cell-based
# T2 sequence (P62813 28-455): as the sequence (P62813 28-455 S325C) above, with C298S counted along it
# T2 sequence (P15431 26-474): as the sequence (P15431 26-474) above
# T2 sequence (P18508 39-466): as the sequence (P18508 39-466) above
# [5] = biological target: T1, S299Cα1β1γ2S GABAA receptors; assay: Extreme low dose assay; assay type: cell-based; conditions: for co-application current, scaled to the added currents = 1 / added separate currents, scaled: n=4; for difference between co-applied and added currents: not significant
# [6] = biological target: T2, wt α1β1γ2S GABAA receptors; assay type: cell-based; conditions: 0.5 μM ALLO, about EC30, n=3
# [7] = test system: α1S299C containing GABAA receptors; conditions: ref Williams and Akabas 1999, 2000, 2002; cited from earlier work
# [8] = biological target: T1, S299Cα1β1γ2S GABAA receptors; assay: Blocking ALLO-induced current with isoallopregnanolone; assay type: cell-based
# [9] = biological target: wild type α1β1γ2S GABAA receptors (Rattus norvegicus, UniProt P15431+P18508+P62813); assay: P4S dose response curve, wild type receptors; assay type: cell-based
# Chain of wild type α1β1γ2S GABAA receptors (P62813 28-455): as the sequence (P62813 28-455 S325C) above, with C298S counted along it
# Chain of wild type α1β1γ2S GABAA receptors (P15431 26-474): as the sequence (P15431 26-474) above
# Chain of wild type α1β1γ2S GABAA receptors (P18508 39-466): as the sequence (P18508 39-466) above
# [10] = biological target: T1, S299Cα1β1γ2S GABAA receptors; assay: P4S dose response curve, S299C receptors; assay type: cell-based
# [11] = test system: α1S299C containing GABAA receptors; conditions: preliminary dose response (not shown)
# [12] = biological target: T1, S299Cα1β1γ2S GABAA receptors; conditions: pCMBS added in the presence of GABA; ref Williams and Akabas 1999; cited from earlier work
# [13] = biological target: T2, wt α1β1γ2S GABAA receptors; assay: SCAM with pCMBS on ALLO-induced currents, wt receptors; assay type: cell-based; conditions: pCMBS added in any concentration of ALLO (not shown)
# [14] = biological target: T1, S299Cα1β1γ2S GABAA receptors; assay: Blocking ALLO-induced current with picrotoxin; assay type: cell-based; conditions: 1 mM PTN co-applied with 5 nM ALLO
molecule,measurement,setting,value
"C[C@]12CC[C@@H](O)C[C@@H]1CC[C@@H]1[C@@H]2CC[C@]2(C)C(c3ccccc3)=CC[C@@H]12 [17-PA, (3α,5α)-17-phenylandrost-16-en-3-ol]",percent change of 100 nM ALLO induced current,"[1]; 1 μM 17-PA added with pCMBS, subsequent 100 nM ALLO current",−4 ± 8%
"CC(=O)[C@H]1CC[C@H]2[C@@H]3CC[C@H]4C[C@H](O)CC[C@]4(C)[C@H]3CC[C@]12C [ALLO, 3α-hydroxy-5α-pregnan-20-one]","inward current, % of 1 mM GABA current","[2]; 50 pM steroid, no GABA, n=4",6 ± 4%
same,"current passed, % of 1 mM GABA current",[2]; 5 nM steroid,approximately 50%
same,"current passed, % of 1 mM GABA current",[2]; 100 nM steroid,approximately 50%
same,EC50,"[2]; EC50, first activation curve, first plateau to valley fit as a separate curve",0.59 nM
same,EC50,"[2]; EC50, second activation curve, second plateau to valley fit as a separate curve",70 nM
same,"first peak maximal current (curve fit), % of maximal (1 mM GABA) current",[2],58 ± 0.25%
same,"second peak maximal current (curve fit), % of maximal (1 mM GABA) current",[2],42 ± 0.26%
same,potentiation of submaximal GABA current,[3],no significant potentiation
same,EC50,[4],870 nM
same,"maximal steroid induced current, % of 1 mM GABA current","[4]; wt receptors, steroid alone, −60 mV",about 43 ± 15%
same,"co-application current, scaled to the added currents = 1",[5]; 100 pM ALLO + 100 nM GABA co-applied,1.21 ± 0.45
same,"added separate currents, scaled",[5]; 100 pM ALLO alone plus 100 nM GABA alone,1.0 ± 0.35
same,"co-application current, scaled to the added currents = 1",[5]; 5 nM ALLO + 100 nM GABA co-applied,1.27 ± 0.39
same,"added separate currents, scaled",[5]; 5 nM ALLO alone plus 100 nM GABA alone,1.0 ± 0.21
same,difference between co-applied and added currents,[5]; 100 nM GABA and 100 pM ALLO,20%
same,difference between co-applied and added currents,[5]; 100 nM GABA and 5 nM ALLO,27%
same,"potentiation, percent increase of 1 μM GABA current",[6],120 ± 28%
NCCCC(=O)O [GABA],response of α1S299C containing receptors compared with wild type,[7],near wild type
"CC(=O)[C@H]1CC[C@H]2[C@@H]3CC[C@H]4C[C@@H](O)CC[C@]4(C)[C@H]3CC[C@]12C [ISO, 3β-hydroxy-5α-pregnan-20-one]",block of ALLO induced current,"[8]; 5 nM ISO, 5 nM ALLO",90 ± 5% and 80–85%
same,block of ALLO induced current,"[8]; 5 nM ISO, 100 nM ALLO",86 ± 8% and 80–85%
same,block of ALLO induced current,"[8]; 100 nM ISO, 5 nM ALLO",73 ± 4%
"O=S(=O)(O)C1CCNCC1 [P4S, Piperidine-4-sulfonic acid]",Kd,[9],110000 ± 37000 nM
same,"maximal current induced, % of 1 mM GABA current","[9]; wt, n of 3",61 ± 3.7%
same,Kd,[10],90000 ± 18000 nM
same,"maximal current induced, % of 1 mM GABA current","[10]; S299C, n of 3",58 ± 1.6%
"C[C@]12CC[C@@H](O)C[C@@H]1CC[C@@H]1[C@@H]2CC[C@]2(C)[C@@H](C(=O)CO)CC[C@@H]12 [THDOC, 3α,21-hydroxy-5α-pregnan-20-one]","current passed, % of 1 mM GABA current",[2]; 1 nM steroid,more than 50%
same,"current passed, % of 1 mM GABA current",[2]; 100 nM steroid,approximately 50%
same,"first peak maximal current (curve fit), % of maximal (1 mM GABA) current",[2],57 ± 5.3%
same,"second peak maximal current (curve fit), % of maximal (1 mM GABA) current",[2],48 ± 0.35%
same,potentiation of submaximal GABA current,[3],no significant potentiation
"CCO [ethanol, Ethanol]",shift of EC50 versus wt,[11],shift to a higher EC50
"O=S(=O)(O)c1cc[c]([Hg][Cl])cc1 [pCMBS^−, para-chloromercuribenzenesulfonic acid]",accessibility of S299C to modification,[12],not accessible to be modified
same,effect on subsequent ALLO induced currents,[13],did not affect
same,reduction of subsequent ALLO induced current,[1]; subsequent 5 nM ALLO current,28 ± 8%
same,reduction of subsequent ALLO induced current,[1]; subsequent 100 nM ALLO current,22 ± 20%
same,inhibition of subsequent ALLO induced current,[1]; subsequent 5 nM ALLO current,63 ± 15%
same,inhibition of subsequent ALLO induced current,[1]; subsequent 100 nM ALLO current,63 ± 15%
same,decrease of ALLO current during co-application,[1]; 0.5 mM pCMBS applied simultaneously with 5 nM ALLO,7 ± 29%
same,reduction of ALLO current during co-application,[1]; 0.5 mM pCMBS co-applied with 100 nM ALLO,62 ± 17%
same,percent difference in subsequent ALLO current,"[1]; pCMBS added with 1 μM ISO, subsequent 100 nM ALLO current",−71 ± 10%
same,percent difference in subsequent ALLO current,"[1]; pCMBS co-applied with 100 nM ISO, subsequent 5 nM ALLO current",3 ± 14%
same,effect on subsequent ALLO currents,"[1]; pCMBS plus 5 nM ISO, subsequent 5 nM or 100 nM ALLO currents (not shown)",did not affect
CC(C)c1cccc(C(C)C)c1O [propofol],response of α1S299C containing receptors compared with wild type,[7],near wild type
Picrotoxin [PTN],block of ALLO induced current,[14],80 ± 20% and ~80%
